The values that follow come from US7414154B2, “Polyamine compounds and compositions for use in conjunction with cancer therapy” (Wisconsin Alumni Research Foundation, priority 2002, dated 2008).

In one test the test system is 23SK skin cells. The experiment in a line: cell cycle distribution by flow cytometry. It counts as cell-based, human. Conditions: 23SK cells. An excerpt: FIGS. 5A-5D are cell histograms showing the results from flow cytometry analysis of chemoprotective polyamine-treated 23SK skin cells.
In FIG. 5, cell histograms showing the results from flow cytometry analysis of chemoprotective polyamine-treated 23SK skin cells are shown. […] The transient nature of the cell cycle block induced by chemoprotective polyamines is believed to be an important aspect of their efficacy, i.e., their ability to block cell cycle progression in stem cells during the course of chemo- or radiotherapy, and the resumption of normal stem cell division after a given cancer therapy course has been completed.

In test [1] the test system is p21 protein in 23SK human skin cells. The test can be described thus: p21 induction by western analysis. Type of test: cell-based. Conditions: 30 hr exposure. Here is the method: FIGS. 3A and 3B illustrate the level of induced p21 protein seen in diploid human fibroblasts after a 30 hr exposure to each of the indicated chemoprotective polyamines. […] In these experiments, the 23SK human skin cells were exposed for 30 hr to an “IC80” dose of each of the indicated chemoprotective polyamines and then lysed. Cell extracts were then prepared in order to measure p21 levels by western analysis (FIG. 3A).
FIG. 3 illustrates that chemoprotective polyamines are able to induce expression of the negative cell cycle regulatory protein, p21, after exposing the human skin cells to the polyamine molecules. […] In these experiments, the 23SK human skin cells were exposed for 30 hr to an “IC80” dose of each of the indicated chemoprotective polyamines and then lysed. Cell extracts were then prepared in order to measure p21 levels by western analysis (FIG. 3A). Although the ability of modified polyamines to induce p21 is known in the literature (Kramer, D. et al., Cancer Res. 59:1278-1286, 1999), it is a novel aspect of this invention that those chemoprotective polyamines with longer aliphatic “arms” were better able to induce expression of p21 as shown in FIG. 4.

Turning to `CCNCCCCNCCCCNCCCCNCC=C(CS)CNCCCCNCCCCNCCCCNCC` [PrC-116], in the test on 23SK skin cells, the “Cell Cycle Distribution At IC80 Dose (%) G1” value turned out to be 66%, the “Cell Cycle Distribution At IC80 Dose (%) G2/M” value is 23% and the “Cell Cycle Distribution At IC80 Dose (%) S” value stood at 11%.

Turning to `CCNCCCCNCCCCNCCCCNCCCCNCC=C(CS)CNCCCCNCCCCNCCCCNCCCCNCC` [PrC-117], the “p21 fold-induction at IC80 Dose” value in test [1] is roughly 3.0 fold. Further, in the test on 23SK skin cells, the “Cell Cycle Distribution At IC80 Dose (%) G1” value is 86%, the “Cell Cycle Distribution At IC80 Dose (%) G2/M” value amounted to 3% and the “Cell Cycle Distribution At IC80 Dose (%) S” value came to 11%.

As for `CCNCCCCNCCCCNCCCCNCCCCNCC=C(CNCCCCNCCCCNCCCCNCCCCNCC)CN(C)C` [PrC-121], in the test with 23SK skin cells, the “Cell Cycle Distribution At IC80 Dose (%) G1” value was found to be 76%, the “Cell Cycle Distribution At IC80 Dose (%) G2/M” value is 20% and the “Cell Cycle Distribution At IC80 Dose (%) S” value is given as 4%.
